# Results as given in patent US20090298073A1, “Kidney Toxicity Biomarkers” (priority 2006, published 2009).
# Columns and labels:
# Format in all cases: in vivo, rat
# male rats [1] = test: Histopathologically-assessed kidney toxicity in rats
# male rats [2] = test: ELISA of urinary TFF3 in rats treated with kidney toxicants; settings: urine
# Procedure: (§1) The biomarkers of the present invention can be measured in blood or urine during testing of a novel therapeutic compound. […] ELISA antibody assays are used to evaluate changes in protein levels.
# (§2) Antibodies were purchased or made and ELISA assays were performed to measure the levels of four Kidney Toxicity Biomarker proteins in urine. The proteins are TFF3; Tarnm Horsfall protein (THP); neutrophil gelatinase-associated lipocalin (NGAL) and albumin.
# male rats [3] = test: ELISA of urinary albumin in rats treated with kidney toxicants; settings: urine
# Procedure: as §1, §2
# male rats [4] = test: ELISA of urinary NGAL in rats treated with kidney toxicants; settings: urine
# Procedure: as §1, §2
# male rats [5] = test: ELISA of urinary Tamm Horsfall protein (THP) in rats treated with kidney toxicants; settings: urine
# Procedure: as §1, §2
# [6] = gentamicin 20 mg/Kg/Day, Day 15
# [7] = gentamicin 80 mg/Kg/Day, Day 15
# [8] = gentamicin 240 mg/Kg/Day, Day 3
# [9] = gentamicin 240 mg/Kg/Day, Day 9
# [10] = gentamicin 240 mg/Kg/Day, Day 12
substance,measurement,setting,value
Gentamicin,Histopathology Score,male rats [1]; [6],<1
same,Histopathology Score,"male rats [1]; gentamicin 80 mg/Kg/Day, Day 3",<1
same,Histopathology Score,male rats [1]; [7],2
same,Histopathology Score,male rats [1]; [8],<1
same,Histopathology Score,male rats [1]; [9],4
same,Histopathology Score,male rats [1]; [10],5
same,TFF3,"male rats [2]; gentamicin 20 mg/Kg/Day, Day 3",634 ng/mL
same,TFF3,"male rats [2]; gentamicin 20 mg/Kg/Day, Day 9",202 ng/mL
same,TFF3,male rats [2]; [6],265 ng/mL
same,TFF3,"male rats [2]; gentamicin 80 mg/Kg/Day, Day 3",280 ng/mL
same,TFF3,"male rats [2]; gentamicin 80 mg/Kg/Day, Day 9",121 ng/mL
same,TFF3,male rats [2]; [7],69 ng/mL
same,TFF3,male rats [2]; [8],132 ng/mL
same,TFF3,male rats [2]; [9],1.3 ng/mL
same,TFF3,male rats [2]; [10],29 ng/mL
same,Albumin,"male rats [3]; gentamicin 20 mg/Kg/Day, Day 3",14 µg/mL
same,Albumin,"male rats [3]; gentamicin 20 mg/Kg/Day, Day 9",7 µg/mL
same,Albumin,male rats [3]; [6],13 µg/mL
same,Albumin,"male rats [3]; gentamicin 80 mg/Kg/Day, Day 3",221 µg/mL
same,Albumin,"male rats [3]; gentamicin 80 mg/Kg/Day, Day 9",190 µg/mL
same,Albumin,male rats [3]; [7],22 µg/mL
same,Albumin,male rats [3]; [8],129 µg/mL
same,Albumin,male rats [3]; [9],534 µg/mL
same,Albumin,male rats [3]; [10],502 µg/mL
same,NGAL,"male rats [4]; gentamicin 20 mg/Kg/Day, Day 3",14 µg/mL
same,NGAL,"male rats [4]; gentamicin 20 mg/Kg/Day, Day 9",15 µg/mL
same,NGAL,male rats [4]; [6],15 µg/mL
same,NGAL,"male rats [4]; gentamicin 80 mg/Kg/Day, Day 3",13 µg/mL
same,NGAL,"male rats [4]; gentamicin 80 mg/Kg/Day, Day 9",14 µg/mL
same,NGAL,male rats [4]; [7],20 µg/mL
same,NGAL,male rats [4]; [8],17 µg/mL
same,NGAL,male rats [4]; [9],13 µg/mL
same,NGAL,male rats [4]; [10],25 µg/mL
same,THP,"male rats [5]; gentamicin 20 mg/Kg/Day, Day 3",4.1 µg/mL
same,THP,"male rats [5]; gentamicin 20 mg/Kg/Day, Day 9",4.5 µg/mL
same,THP,male rats [5]; [6],4.4 µg/mL
same,THP,"male rats [5]; gentamicin 80 mg/Kg/Day, Day 3",3.4 µg/mL
same,THP,"male rats [5]; gentamicin 80 mg/Kg/Day, Day 9",3.1 µg/mL
same,THP,male rats [5]; [7],3.9 µg/mL
same,THP,male rats [5]; [8],3.2 µg/mL
same,THP,male rats [5]; [9],1.3 µg/mL
same,THP,male rats [5]; [10],1.9 µg/mL
